# Data taken from US5070210A, “Novel ketenimines as intermediates for insecticides” (ICI Americas Inc., priority 1990, dated 1991).
# Legend:
# Format in all cases: in vivo
# [1] = test system: Housefly [Musca domestica]; experiment: Housefly insecticidal test; details: μg per 25 female flies; mortality after 48 hours
# In short: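 LC50 (μg compound per 25 female flies) derives from dosage-mortality curves of 48 h kill. Flies, females 1-2 days old, were held 25 per cage over a dish coated with dried acetone deposit, starting at 100 μg per cage and descending.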
# [2] = test system: Tobacco Budworm [Heliothis virescens (Fabricius)] eggs; experiment: Tobacco budworm egg test; details: 2-day old eggs, percent in solution
# In short: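 Paper-towel patches of 2-day-old eggs dipped in acetone solutions of compound (0.1% downward), held on larval rearing medium at 78° F. Mortality scored once all control eggs had hatched and larvae were feeding; LC50 from dosage-mortality curves, expressed as percent compound in solution.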
# [3] = test system: Cabbage Looper [Trichoplusia ni (Hubner)]; experiment: Cabbage looper insecticidal test; details: second-instar larvae, percent in solution; 3-5 days
# In short: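 Squash cotyledons dipped 2-3 s in compound in 50-50 acetone-water, dried, then infested with 5 second-instar larvae and held at high humidity. Mortality scored after 3-5 days at concentrations from 0.1% downward. LC50 from dosage-mortality curves, expressed as percent compound in solution.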
# [4] = test system: Aster Leafhopper [Macrosteles fascifrens (Stal)]; experiment: Aster leafhopper insecticidal test; details: adults/nymphs, percent in solution; 48 hours
# Description: The compounds in Tables 1 and 2 above were tested for insecticidal activity using the following testing procedures. LC50 values, based on the results of these tests and calculated according to dosage-mortality curves, are expressed in Table 3.
# Aster Leafhopper [Macrosteles fascifrens (Stal)]
# Oat seedlings (Avena sp) were grown in a commercial potting soil in cups. When the plants were approximately 10 cm tall they were thinned to three plants per cup and dipped for 2-3 seconds in 50-50 acetone-water solutions of the test compounds. When the plants had dried, a clear plastic tube was placed over them and the bottom end pressed into the cup. Ten aster leafhopper adults/nymphs were then placed in each tube and the tops of the tubes covered with white organdy cloth. Mortality counts were made after 48 hours. Test concentrations ranged from 0.05% down to that at which 50% mortality occurred. The LC50 values are expressed below in Table 3 under the heading "LH" in terms of the percent of the test compound in the solution.
# [5] = test system: Maize weevil [Sitophilus Zeamais (Motschulsky)]; experiment: Maize weevil insecticidal test; details: adult weevils, percent in solution; 48 hours
# In short: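 LC50, in percent of compound in solution, was derived from dosage-mortality curves after 48 h at about 25 °C. Ten adult weevils per container fed on four corn seeds briefly immersed in acetone:water (50:50) solutions of up to 0.01% and dried.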
compound,measurement,setting,value
C=C(C)C(=Nc1ccc(Cl)cc1)OCc1cccc(Oc2ccccc2)c1 [Compound 6],"LC50, HF",[1],17 µg
same,"LC50, TBW, E (TBW-E)",[2],0.015%
same,"LC50, CL",[3],0.02%
same,"LC50, LH",[4],> 0.05%
same,"LC50, MW",[5],> 0.01%
CCC(=Nc1ccc(Cl)cc1)OCc1cccc(Oc2ccccc2)c1 [Compound 11],"LC50, HF",[1],6 µg
same,"LC50, TBW, E (TBW-E)",[2],> 0.1%
same,"LC50, CL",[3],0.025%
same,"LC50, LH",[4],> 0.05%
same,"LC50, MW",[5],> 0.01%
CC(C)C(=Nc1cc(Cl)ccc1Cl)OCc1cccc(Oc2ccccc2)c1 [Compound 13],"LC50, HF",[1],> 100 µg
same,"LC50, TBW, E (TBW-E)",[2],> 0.1%
same,"LC50, CL",[3],0.014%
same,"LC50, LH",[4],> 0.05%
same,"LC50, MW",[5],> 0.01%
CC(C)C(=Nc1ccccc1Cl)OCc1cccc(Oc2ccccc2)c1 [Compound 17],"LC50, HF",[1],75 µg
same,"LC50, TBW, E (TBW-E)",[2],> 0.1%
same,"LC50, CL",[3],0.03%
same,"LC50, LH",[4],> 0.05%
same,"LC50, MW",[5],> 0.01%
N#CC(=Nc1ccc(Cl)cc1)OCc1cccc(Oc2ccccc2)c1 [Compound 21],"LC50, HF",[1],7 µg
same,"LC50, TBW, E (TBW-E)",[2],> 0.1%
same,"LC50, CL",[3],0.02%
same,"LC50, LH",[4],> 0.05%
same,"LC50, MW",[5],> 0.01%
CC(C)(C)C(=Nc1ccc(Cl)c(Cl)c1)OCc1cccc(Oc2ccccc2)c1 [Compound 25],"LC50, HF",[1],> 100 µg
same,"LC50, TBW, E (TBW-E)",[2],> 0.1%
same,"LC50, CL",[3],0.01%
same,"LC50, LH",[4],> 0.05%
same,"LC50, MW",[5],> 0.01%
FC(F)(F)C(=Nc1ccc(Cl)cc1)OCc1cccc(Oc2ccccc2)c1 [Compound 35],"LC50, HF",[1],15 µg
same,"LC50, TBW, E (TBW-E)",[2],0.03%
same,"LC50, CL",[3],0.008%
same,"LC50, LH",[4],> 0.05%
same,"LC50, MW",[5],> 0.01%
CC(C)C(=Nc1ccccc1)OCc1cccc(Oc2ccccc2)c1 [Compound 43],"LC50, HF",[1],7 µg
same,"LC50, TBW, E (TBW-E)",[2],0.05%
same,"LC50, CL",[3],0.018%
same,"LC50, LH",[4],> 0.05%
same,"LC50, MW",[5],> 0.01%
Fc1ccc(N=C(OCc2cccc(Oc3ccccc3)c2)C(F)F)cc1 [Compound 50],"LC50, HF",[1],43 µg
same,"LC50, TBW, E (TBW-E)",[2],> 0.05%
same,"LC50, CL",[3],0.02%
same,"LC50, LH",[4],> 0.05%
same,"LC50, MW",[5],> 0.01%
CC(C)C(=Nc1ccccc1C(F)(F)F)OCc1cccc(Oc2ccccc2)c1 [Compound 72],"LC50, HF",[1],> 100 µg
same,"LC50, TBW, E (TBW-E)",[2],> 0.1%
same,"LC50, CL",[3],0.08%
same,"LC50, LH",[4],> 0.05%
same,"LC50, MW",[5],> 0.01%
CCS(=O)(=O)c1ccc(N=C(OCc2cccc(Oc3ccccc3)c2)C(C)C)cc1Cl [Compound 112],"LC50, HF",[1],> 100 µg
same,"LC50, TBW, E (TBW-E)",[2],> 0.1%
same,"LC50, CL",[3],0.025%
same,"LC50, LH",[4],> 0.05%
same,"LC50, MW",[5],> 0.01%
Fc1ccc(N=C(OCc2cccc(Oc3ccccc3)c2)C(F)(F)C(F)(F)F)cc1Cl [Compound 117],"LC50, HF",[1],55 µg
same,"LC50, TBW, E (TBW-E)",[2],> 0.1%
same,"LC50, CL",[3],0.006%
same,"LC50, LH",[4],0.0003%
same,"LC50, MW",[5],> 0.01%
CC(C)C(=Nc1ccc(F)c(Cl)c1)OCc1cccc(Oc2ccccc2F)c1 [Compound 119],"LC50, HF",[1],27 µg
same,"LC50, TBW, E (TBW-E)",[2],0.048%
same,"LC50, CL",[3],0.0007%
same,"LC50, LH",[4],0.0008%
same,"LC50, MW",[5],> 0.01%
CC1(C)C(C(=Nc2ccc(F)c(Cl)c2)OCc2cccc(Oc3ccccc3)c2)C1(C)C [Compound 124],"LC50, HF",[1],17 µg
same,"LC50, TBW, E (TBW-E)",[2],> 0.1%
same,"LC50, CL",[3],0.01%
same,"LC50, LH",[4],> 0.05%
same,"LC50, MW",[5],> 0.01%
CC(C)C(=Nc1cccc(Br)c1)OCc1cccc(Oc2ccccc2)c1 [Compound 128],"LC50, HF",[1],4.5 µg
same,"LC50, TBW, E (TBW-E)",[2],0.037%
same,"LC50, CL",[3],0.005%
same,"LC50, LH",[4],0.003%
same,"LC50, MW",[5],> 0.01%
CC(C)C(=Nc1ccccc1Br)OCc1cccc(Oc2ccccc2)c1 [Compound 132],"LC50, HF",[1],65 µg
same,"LC50, TBW, E (TBW-E)",[2],> 0.1%
same,"LC50, CL",[3],0.025%
same,"LC50, LH",[4],> 0.05%
same,"LC50, MW",[5],> 0.01%
CSc1ccc(N=C(OCc2cccc(Oc3ccccc3)c2)C(C)C)cc1 [Compound 142],"LC50, HF",[1],15 µg
same,"LC50, TBW, E (TBW-E)",[2],0.1%
same,"LC50, CL",[3],0.005%
same,"LC50, LH",[4],> 0.05%
same,"LC50, MW",[5],> 0.01%
COc1cccc(N=C(OCc2cccc(Oc3ccccc3)c2)C(C)C)c1 [Compound 143],"LC50, HF",[1],10 µg
same,"LC50, TBW, E (TBW-E)",[2],< 0.1%
same,"LC50, CL",[3],0.002%
same,"LC50, LH",[4],0.006%
same,"LC50, MW",[5],> 0.01%
COC(=O)c1ccc(N=C(OCc2cccc(Oc3ccccc3)c2)C(C)C)cc1 [Compound 151],"LC50, HF",[1],38 µg
same,"LC50, TBW, E (TBW-E)",[2],> 0.1%
same,"LC50, CL",[3],0.009%
same,"LC50, LH",[4],> 0.05%
same,"LC50, MW",[5],> 0.01%
CC(C)C(=Nc1ccc(C(C)(C)C)cc1)OCc1cccc(Oc2ccccc2)c1 [Compound 153],"LC50, HF",[1],> 100 µg
same,"LC50, TBW, E (TBW-E)",[2],0.1%
same,"LC50, CL",[3],0.004%
same,"LC50, LH",[4],0.0005%
same,"LC50, MW",[5],> 0.01%
CSc1ccc(Oc2cccc(COC(=Nc3ccc(F)cc3)C(C)C)c2)cc1 [Compound 257],"LC50, HF",[1],> 100 µg
same,"LC50, TBW, E (TBW-E)",[2],> 0.1%
same,"LC50, CL",[3],0.008%
same,"LC50, LH",[4],> 0.05%
Fc1ccc(Oc2cccc(COC(=Nc3ccc(F)c(Cl)c3)C(F)(F)C(F)(F)F)c2)cc1 [Compound 258],"LC50, HF",[1],> 100 µg
same,"LC50, TBW, E (TBW-E)",[2],> 0.1%
same,"LC50, CL",[3],0.003%
same,"LC50, LH",[4],> 0.05%
CC(C)C(=Nc1cc(F)ccc1Cl)OCc1ccc(F)c(Oc2ccc(F)cc2)c1 [Compound 303],"LC50, HF",[1],> 100 µg
same,"LC50, TBW, E (TBW-E)",[2],> 0.1%
same,"LC50, CL",[3],0.0015%
same,"LC50, LH",[4],0.0005%
CC(C)C(=Nc1ccc(Cl)cc1)OC(C)c1cccc(Oc2ccccc2)c1 (centres unmarked) [Compound 457],"LC50, HF",[1],> 100 µg
same,"LC50, TBW, E (TBW-E)",[2],> 0.05%
same,"LC50, CL",[3],0.009%
same,"LC50, LH",[4],> 0.05%
CC(C)C(=Nc1ccc2c(c1)OCO2)OCc1cccc(Oc2ccc(F)cc2)n1 [Compound 465],"LC50, HF",[1],8 µg
same,"LC50, TBW, E (TBW-E)",[2],0.027%
same,"LC50, CL",[3],0.0017%
same,"LC50, LH",[4],0.0025%
COCc1c(F)c(F)c(COC(=Nc2ccc(F)c(Cl)c2F)C(C)C)c(F)c1F [Compound 522],"LC50, TBW, E (TBW-E)",[2],> 0.1%
same,"LC50, CL",[3],> 0.1%
same,"LC50, LH",[4],0.05%
same,"LC50, MW",[5],> 0.01%
CC(C)C(=Nc1cccc(C(F)(F)F)c1)OCc1cc(Oc2ccc(F)cc2)ccn1 [Compound 528],"LC50, TBW, E (TBW-E)",[2],> 0.1%
same,"LC50, CL",[3],0.0075%
same,"LC50, LH",[4],> 0.05%
same,"LC50, MW",[5],> 0.01%
CC(C)C(=Nc1ccc(F)c(Cl)c1)OCc1cc(Oc2ccc(F)cc2)ccn1 [Compound 529],"LC50, TBW, E (TBW-E)",[2],> 0.1%
same,"LC50, CL",[3],> 0.0025%
same,"LC50, LH",[4],> 0.05%
same,"LC50, MW",[5],> 0.01%
CC(C)C(=Nc1ccc(F)c(Cl)c1)OCc1cccc(Cc2ccccc2)c1 [Compound 541],"LC50, HF",[1],< 100 µg
same,"LC50, CL",[3],0.001%
same,"LC50, LH",[4],> 0.05%
same,"LC50, MW",[5],> 0.01%
CC(C)C(=Nc1ccc(C(F)(F)F)cc1)OCc1cccc(Cc2ccccc2)c1 [Compound 543],"LC50, HF",[1],< 100 µg
same,"LC50, CL",[3],0.0008%
same,"LC50, LH",[4],< 0.05%
same,"LC50, MW",[5],> 0.01%
